Results taken from PubChem BioAssay (NCI).
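Dose response: 5 concentrations. Exposure: 48 h. Format: 96-well plates. Endpoint: linear interpolation; highest concentration if not reached. TGI denotes the concentration required for complete inhibition of growth.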

Legend:
Assay in all cases: inhibition of tumour cell growth, NCI panel, 48 h
[1] = system: NCI/ADR-RES ovarian
[2] = system: MDA-N
[3] = system: SK-MEL-2 melanoma
[4] = system: NCI-H226 lung
[5] = system: RXF 393 renal
[6] = system: M14 melanoma
[7] = system: A498 renal
[8] = system: LOX IMVI melanoma
[9] = system: HOP-92 NSCLC
[10] = system: EKVX NSCLC

Row | SMILES | TGI [1] [µM] | TGI [2] [µM] | TGI [3] [µM] | TGI [4] [µM] | TGI [5] [µM] | TGI [6] [µM] | TGI [7] [µM] | TGI [8] [µM] | TGI [9] [µM] | TGI [10] [µM]
1 | CC(C)=CCC/C(C)=C/Cc1c2c(c3oc(-c4ccc(O)c(O)c4)c(O)c(=O)c3c1O)C=CC(C)(C)O2 | 11.7 | 11.4 | 13.7 | 15.2 | 18.6 | 9.42 | 12.9 |  |  | 
2 | O=C(Nn1c(-c2ccccc2)nc2ccccc2c1=O)c1cccc([N+](=O)[O-])c1 |  | > 100 |  | > 100 | > 100 | > 100 | > 100 | > 100 | > 100 | > 100
3 | O=c1[nH]c(=O)n([C@H]2C[C@@H](CO)[C@@H](O)C2)cc1I |  |  | > 100 | > 100 |  | > 100 | > 100 | > 100 | > 100 | > 100
4 | C1=NN2C(c3ccccc3)=NOC2C2C(c3ccccc3)=NOC12 (stereo not given) | > 100 | > 100 |  | > 100 | > 100 | > 100 |  | > 100 |  | > 100
5 | COC(=O)C(=O)C(C(=O)OC)C(=O)C(=O)Nc1cc(Cl)c(C)cc1S(=O)(=O)O (stereo not given) |  |  | > 100 | > 100 | > 100 | > 100 | > 100 | > 100 |  | > 100
6 | N#Cc1c(C#N)c(SSc2c(C#N)c(C#N)c(N)n2-c2cccc3ccccc23)n(-c2cccc3ccccc23)c1N | > 76.8 | 12.4 | 34.8 | 56.3 | 17.4 | 8.4 | > 63.6 |  | 13.6 | 10.1
7 | N#Cc1c(-c2ccccc2)cn(C(=O)c2ccccc2)c1N | > 100 | > 100 | > 100 | > 100 |  | > 100 |  | > 100 | > 100 | > 100
8 | Cc1csc2nc(-c3cc([N+](=O)[O-])c(Cl)cc3Cl)c(/C=N/N=C(N)N)n12 | 32 |  | 26.1 | 34.6 | 35 | 34.3 | 35 | 33.1 | 32.1 | 38.2
9 | COc1cccc(CCn2c(N)c(-c3cc(Cl)cc(Cl)c3)c3ccc([N+](=O)[O-])cc3c2=O)c1 | > 55 | > 100 | > 31.4 | > 53.5 |  | > 100 | > 28.8 | > 56.1 | 7.93 | > 100
10 | COc1nc(=O)[nH]c2c1C(c1ccc([N+](=O)[O-])cc1)c1c(OC)nc(=O)[nH]c1O2 | > 100 | > 100 | > 100 | > 100 | > 100 | > 100 | > 100 |  |  | > 100
11 | Cc1c(-c2coc(-c3ccc([N+](=O)[O-])cc3)n2)c(=O)n(-c2ccccc2)n1C |  |  | > 100 | > 100 |  | > 100 | > 100 | > 100 | > 100 | > 100
12 | CCCCCCC(=O)OC[n+]1ccc(-c2c(COC(=O)NC(C)C)c(COC(=O)NC(C)C)c3n2CCC3)cc1 | > 100 |  | > 100 | > 100 | > 100 | > 100 | > 94.2 | > 100 | > 100 | > 100
